Test results published in US20060069132A1, “Azolecarboxamide herbicides” (priority 2004, published 2006).

Columns and labels:
[1] = test system: barnyardgrass; assay: Test B pre-/postemergence herbicide test; type: in vivo, Echinochloa crus-galli
In short: (§1)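 Greenhouse pot assay with simultaneous preemergence (treated seed) and postemergence (2–18 cm seedlings) applications of surfactant-containing, non-phytotoxic solvent formulations. Response scored visually 13–15 days later on a 0–100 scale, 100 meaning complete control.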

[2] = test system: Surinam grass; assay: Test B pre-/postemergence herbicide test; type: in vivo, Urochloa decumbens
In short: (§2)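 Flooded paddy rice and barnyardgrass were treated at the 2-leaf stage; upland plantings received compound either on sown seed or on 1- to 4-leaf seedlings. All were kept 13–15 days in a greenhouse and scored visually, 0–100, relative to untreated plants.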

[3] = test system: cocklebur; assay: Test B pre-/postemergence herbicide test; type: in vivo, Xanthium strumarium
In short: as §1

[4] = test system: corn; assay: Test B pre-/postemergence herbicide test; type: in vivo, Zea mays
In short: as §2

[5] = test system: large crabgrass; assay: Test B pre-/postemergence herbicide test; type: in vivo, Digitaria sanguinalis
In short: as §2

[6] = test system: giant foxtail; assay: Test B pre-/postemergence herbicide test; type: in vivo, Setaria faberi
In short: as §2

[7] = test system: lambsquarters; assay: Test B pre-/postemergence herbicide test; type: in vivo, Chenopodium album
In short: as §2

[8] = test system: morningglory; assay: Test B pre-/postemergence herbicide test; type: in vivo, Ipomoea coccinea
In short: as §1

[9] = test system: pigweed; assay: Test B pre-/postemergence herbicide test; type: in vivo, Amaranthus retroflexus
In short: as §2

[10] = test system: blackgrass; assay: Test B postemergence herbicide test; type: in vivo, Alopecurus myosuroides
In short: (§3)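 Greenhouse test; postemergence application to plants at 1–4 leaves (2–18 cm); paddy species at 2 leaves; evaluated visually vs controls at 13–15 days; scale 0–100 (100 = complete control).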

[11] = test system: wheat; assay: Test B postemergence herbicide test; type: in vivo, Triticum aestivum; set-up: key to Wheat plant response rating: 0 = no effect, 100 = complete control; details: for Wheat plant response rating: postemergence
In short: (§4)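 Read-out: visual comparison with controls, scored 0 to 100, where 100 means complete control and 0 no effect. Formulated chemicals were applied postemergence to plants 2–18 cm tall (1- to 4-leaf), or to flooded-paddy plants at the 2-leaf stage, then held 13 to 15 days under glass.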

[12] = test system: wild oat; assay: Test B postemergence herbicide test; type: in vivo, Avena fatua
In short: as §4

[13] = test system: rice; assay: Test B flooded paddy test; type: in vivo, Oryza sativa; details: 1000 g ai/ha, scale 0 to 100 (0 no effect, 100 complete control)
In short: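 After treating 2-leaf paddy plants or 2–18 cm postemergence plants (1 to 4 leaves) with formulated chemical, researchers kept them in a greenhouse for 13–15 days. Effects were judged visually versus controls: 0 indicates none, 100 total control.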

[14] = test system: small flower umbrella sedge; assay: Test B flooded paddy test; type: in vivo, Cyperus difformis; details: 1000 g ai/ha, scale 0 to 100 (0 no effect, 100 complete control)
In short: as §3

[15] = test system: ducksalad; assay: Test B flooded paddy test; type: in vivo, Heteranthera limosa; details: 1000 g ai/ha, scale 0 to 100 (0 no effect, 100 complete control)
In short: as §3

[16] = test system: barnyardgrass; assay: Test B flooded paddy test; type: in vivo, Echinochloa crus-galli; details: 1000 g ai/ha, scale 0 to 100 (0 no effect, 100 complete control)
In short: as §3

[17] = 125 g ai/ha, 0 is no effect, 100 is complete control, preemergence
[18] = 125 g ai/ha, visual rating, scale 0 (no effect) to 100 (complete control), postemergence
[19] = 500 g ai/ha, visual rating, 0 = no effect, 100 = complete control, preemergence
[20] = postemergence, 500 g ai/ha, scale 0 to 100, 0 is no effect, 100 is complete control
[21] = Postemergence, 125 g ai/ha, scale 0 (no effect) to 100 (complete control)
[22] = Postemergence, 500 g ai/ha, visual rating after 13 to 15 days, scale 0 (no effect) to 100 (complete control)
[23] = Preemergence, 500 g ai/ha, scale 0 to 100
[24] = preemergence, 125 g ai/ha, 0 to 100 scale, 0 is no effect, 100 is complete control

With `CCC1=NN(C(C)(C)C)CC1C(=O)Nc1cc(C(=O)N(C)C)ccc1F` (racemic) [Compound 343] the “Plant response rating (0 to 100 scale), Barnyardgrass” value [1, 17] was 70, the “Barnyardgrass plant response rating” value [1, 18] was 10 and the “Plant response rating, Barnyardgrass” value [1, 19] was 100. The “Barnyardgrass plant response rating” value [1, 20] was 50, the “Plant response rating (0 to 100 scale), Surinam Grass” value [2, 17] was 50 and the “Surinam Grass plant response rating” value [2, 18] was 10. For the same compound, the “Plant response rating, Surinam Grass” value [2, 19] was 100, the “Surinam Grass plant response rating” value [2, 20] was 40 and the “Cocklebur plant response rating” value [3, 18] was 0. For the same compound, the “Plant response rating, Cocklebur” value [3, 19] was 90, the “Cocklebur plant response rating” value [3, 20] was 20 and the “Corn plant response rating” value [4, 18] was 10. The “Corn plant response rating” value [4, 20] was 30, the “Plant response rating (0 to 100 scale), Crabgrass, Large” value [5, 17] was 40 and the “Crabgrass, Large plant response rating” value [5, 18] was 20. For the same compound, the “Plant response rating, Crabgrass, Large” value [5, 19] was 100, the “Crabgrass, Large plant response rating” value [5, 20] was 50 and the “Plant response rating (0 to 100 scale), Foxtail, Giant” value [6, 17] was 30. For the same compound, the “Foxtail, Giant plant response rating” value [6, 18] was 30, the “Plant response rating, Foxtail, Giant” value [6, 19] was 100 and the “Foxtail, Giant plant response rating” value [6, 20] was 50. For the same compound, the “Plant response rating (0 to 100 scale), Lambsquarters” value [7, 17] was 90, the “Lambsquarters plant response rating” value [7, 18] was 40 and the “Plant response rating, Lambsquarters” value [7, 19] was 100. The “Lambsquarters plant response rating” value [7, 20] was 100, the “Plant response rating (0 to 100 scale), Morningglory” value [8, 17] was 50 and the “Morningglory plant response rating” value [8, 18] was 30. For the same compound, the “Plant response rating, Morningglory” value [8, 19] was 100, the “Morningglory plant response rating” value [8, 20] was 80 and the “Plant response rating (0 to 100 scale), Pigweed” value [9, 17] was 90. For the same compound, the “Pigweed plant response rating” value [9, 18] was 40, the “Plant response rating, Pigweed” value [9, 19] was 100 and the “Pigweed plant response rating” value [9, 20] was 90. For the same compound, the “Blackgrass plant response rating” value [10, 18] was 0, the “Blackgrass plant response rating” value [10, 20] was 10 and the “Wheat plant response rating” value ([11]; 125 g ai/ha, visual rating, scale 0 (no effect) to 100 (complete control)) was 0. The “Wheat plant response rating” value ([11]; 500 g ai/ha, scale 0 to 100, 0 is no effect, 100 is complete control) was 0, the “Oat, Wild plant response rating” value [12, 18] was 10 and the “Oat, Wild plant response rating” value [12, 20] was 10. For the same compound, the “Rice plant response rating” value [13] was 80, the “Sedge, Umbrella plant response rating” value [14] was 90 and the “Ducksalad plant response rating” value [15] was 90. For the same compound, the “Barnyardgrass plant response rating” value [16] was 90.

In the case of `C=CCNC(=O)c1cccc(NC(=O)c2cc(C(C)(C)C)nn2CC)c1` [Compound 46], the “Barnyardgrass plant response rating” value [1, 21] is reported as 10, the “Plant response rating, Barnyardgrass” value [1, 22] is reported as 50 and the “Barnyardgrass plant response rating” value [1, 23] is reported as 100. For the same compound, the “Plant response rating, Surinam Grass” value [2, 22] was 40, the “Surinam Grass plant response rating” value [2, 23] was 70 and the “Plant response rating, Surinam Grass” value [2, 24] was 20. For the same compound, the “Cocklebur plant response rating” value [3, 21] was 30, the “Plant response rating, Cocklebur” value [3, 22] was 90 and the “Cocklebur plant response rating” value [3, 23] was 30. For the same compound, the “Corn plant response rating” value [4, 21] was 20, the “Plant response rating, Corn” value [4, 22] was 30 and the “Corn plant response rating” value [4, 23] was 10. The “Crabgrass, Large plant response rating” value [5, 21] was 30, the “Plant response rating, Crabgrass, Large” value [5, 22] was 90 and the “Crabgrass, Large plant response rating” value [5, 23] was 100. The “Foxtail, Giant plant response rating” value [6, 21] was 30, the “Plant response rating, Foxtail, Giant” value [6, 22] was 40 and the “Foxtail, Giant plant response rating” value [6, 23] was 100. For the same compound, the “Plant response rating, Foxtail, Giant” value [6, 24] was 60, the “Lambsquarters plant response rating” value [7, 21] was 80 and the “Plant response rating, Lambsquarters” value [7, 22] was 90. The “Lambsquarters plant response rating” value [7, 23] was 100, the “Plant response rating, Lambsquarters” value [7, 24] was 100 and the “Morningglory plant response rating” value [8, 21] was 0. For the same compound, the “Plant response rating, Morningglory” value [8, 22] was 90, the “Morningglory plant response rating” value [8, 23] was 20 and the “Plant response rating, Morningglory” value [8, 24] was 10. For the same compound, the “Plant response rating, Pigweed” value [9, 22] was 90, the “Pigweed plant response rating” value [9, 23] was 100 and the “Plant response rating, Pigweed” value [9, 24] was 100. For the same compound, the “Blackgrass plant response rating” value [10, 21] was 10, the “Plant response rating, Blackgrass” value [10, 22] was 20 and the “Plant response rating, Wheat” value [11, 22] was 30. For the same compound, the “Oat, Wild plant response rating” value [12, 21] was 0, the “Plant response rating, Oat, Wild” value [12, 22] was 10 and the “Rice plant response rating” value ([13]; visual rating, 13 to 15 days) was 70. For the same compound, the “Sedge, Umbrella plant response rating” value ([14]; visual rating, 13 to 15 days) was 80, the “Ducksalad plant response rating” value ([15]; visual rating, 13 to 15 days) was 90 and the “Barnyardgrass plant response rating” value ([16]; visual rating, 13 to 15 days) was 90.
